What was measured:
Assay type in all cases: ADME
[1] = (§1) The drug is tested on Alloscardovia omnicolens strain: DSM21503 for biotransformation under anaerobic condition. The drug concentrations were measured over 6 timepoints collected between 0 and 12 hours of incubation by liquid-chromatography-coupled mass spectrometry (LC–MS); parameters: dose 5 uM, timepoint 0, 1.5, 3, 6, 9, 12 hours; conditions: 5 µM
[2] = The drug is tested on Bacteroides caccae strain: DSM19024 for biotransformation under anaerobic condition. The drug concentrations were measured over 6 timepoints collected between 0 and 12 hours of incubation by liquid-chromatography-coupled mass spectrometry (LC–MS); parameters: dose 5 uM, timepoint 0, 1.5, 3, 6, 9, 12 hours; conditions: 5 µM
[3] = The drug is tested on Bacteroides fragilis strain: DSM2151 for biotransformation under anaerobic condition. The drug concentrations were measured over 6 timepoints collected between 0 and 12 hours of incubation by liquid-chromatography-coupled mass spectrometry (LC–MS); parameters: dose 5 uM, timepoint 0, 1.5, 3, 6, 9, 12 hours; conditions: 5 µM
[4] = The drug is tested on Bacteroides xylanisolvens strain: HM 722 for biotransformation under anaerobic condition. The drug concentrations were measured over 6 timepoints collected between 0 and 12 hours of incubation by liquid-chromatography-coupled mass spectrometry (LC–MS); parameters: dose 5 uM, timepoint 0, 1.5, 3, 6, 9, 12 hours; conditions: 5 µM
[5] = The drug is tested on Parabacteroides merdae strain: DSM19495 for biotransformation under anaerobic condition. The drug concentrations were measured over 6 timepoints collected between 0 and 12 hours of incubation by liquid-chromatography-coupled mass spectrometry (LC–MS); parameters: dose 5 uM, timepoint 0, 1.5, 3, 6, 9, 12 hours; conditions: 5 µM
[6] = The drug is tested on Blautia hansenii strain: DSM20583 for biotransformation under anaerobic condition. The drug concentrations were measured over 6 timepoints collected between 0 and 12 hours of incubation by liquid-chromatography-coupled mass spectrometry (LC–MS); parameters: dose 5 uM, timepoint 0, 1.5, 3, 6, 9, 12 hours; conditions: 5 µM
[7] = The drug is tested on Clostridium ramosum strain: DSM1402 for biotransformation under anaerobic condition. The drug concentrations were measured over 6 timepoints collected between 0 and 12 hours of incubation by liquid-chromatography-coupled mass spectrometry (LC–MS); parameters: dose 5 uM, timepoint 0, 1.5, 3, 6, 9, 12 hours; conditions: thomasclavelia ramosa, 5 µM
[8] = The drug is tested on Clostridium scindens strain: DSM5676 for biotransformation under anaerobic condition. The drug concentrations were measured over 6 timepoints collected between 0 and 12 hours of incubation by liquid-chromatography-coupled mass spectrometry (LC–MS); parameters: dose 5 uM, timepoint 0, 1.5, 3, 6, 9, 12 hours; conditions: 5 µM
[9] = The drug is tested on Dorea formicigenerans strain: DSM3992 for biotransformation under anaerobic condition. The drug concentrations were measured over 6 timepoints collected between 0 and 12 hours of incubation by liquid-chromatography-coupled mass spectrometry (LC–MS); parameters: dose 5 uM, timepoint 0, 1.5, 3, 6, 9, 12 hours; conditions: 5 µM
[10] = The drug is tested on Eubacterium eligens strain: DSM3376 for biotransformation under anaerobic condition. The drug concentrations were measured over 6 timepoints collected between 0 and 12 hours of incubation by liquid-chromatography-coupled mass spectrometry (LC–MS); parameters: dose 5 uM, timepoint 0, 1.5, 3, 6, 9, 12 hours; conditions: lachnospira eligens, 5 µM
[11] = The drug is tested on Eubacterium hallii strain: DSM3353 for biotransformation under anaerobic condition. The drug concentrations were measured over 6 timepoints collected between 0 and 12 hours of incubation by liquid-chromatography-coupled mass spectrometry (LC–MS); parameters: dose 5 uM, timepoint 0, 1.5, 3, 6, 9, 12 hours; conditions: anaerobutyricum hallii, 5 µM
[12] = The drug is tested on Gemella haemolysans strain: DSM107751 for biotransformation under anaerobic condition. The drug concentrations were measured over 6 timepoints collected between 0 and 12 hours of incubation by liquid-chromatography-coupled mass spectrometry (LC–MS); parameters: dose 5 uM, timepoint 0, 1.5, 3, 6, 9, 12 hours; conditions: 5 µM
[13] = The drug is tested on Lactobacillus fermentum strain: DSM20052 for biotransformation under anaerobic condition. The drug concentrations were measured over 6 timepoints collected between 0 and 12 hours of incubation by liquid-chromatography-coupled mass spectrometry (LC–MS); parameters: dose 5 uM, timepoint 0, 1.5, 3, 6, 9, 12 hours; conditions: limosilactobacillus fermentum, 5 µM
[14] = The drug is tested on Lactobacillus ruminis strain: ATCC25644 for biotransformation under anaerobic condition. The drug concentrations were measured over 6 timepoints collected between 0 and 12 hours of incubation by liquid-chromatography-coupled mass spectrometry (LC–MS); parameters: dose 5 uM, timepoint 0, 1.5, 3, 6, 9, 12 hours; conditions: ligilactobacillus ruminis, 5 µM
[15] = The drug is tested on Streptococcus anginosus strain: DSM20563 for biotransformation under anaerobic condition. The drug concentrations were measured over 6 timepoints collected between 0 and 12 hours of incubation by liquid-chromatography-coupled mass spectrometry (LC–MS); parameters: dose 5 uM, timepoint 0, 1.5, 3, 6, 9, 12 hours; conditions: 5 µM
[16] = The drug is tested on Enterococcus faecalis strain: ATCC29212 for biotransformation under anaerobic condition. The drug concentrations were measured over 6 timepoints collected between 0 and 12 hours of incubation by liquid-chromatography-coupled mass spectrometry (LC–MS); parameters: dose 5 uM, timepoint 0, 1.5, 3, 6, 9, 12 hours; conditions: 5 µM
[17] = The drug is tested on Akkermansia muciniphila strain: DSM22959 for biotransformation under anaerobic condition. The drug concentrations were measured over 6 timepoints collected between 0 and 12 hours of incubation by liquid-chromatography-coupled mass spectrometry (LC–MS); parameters: dose 5 uM, timepoint 0, 1.5, 3, 6, 9, 12 hours; conditions: 5 µM
[18] = (§2) The drug is tested on Gemella haemolysans strain: DSM107751 for biotransformation under microaerobic condition. The drug concentrations were measured over 6 timepoints collected between 0 and 12 hours of incubation by liquid-chromatography-coupled mass spectrometry (LC–MS); parameters: dose 5 uM, timepoint 0, 1.5, 3, 6, 9, 12 hours; conditions: 5 µM
[19] = The drug is tested on Lactobacillus fermentum strain: DSM20052 for biotransformation under microaerobic condition. The drug concentrations were measured over 6 timepoints collected between 0 and 12 hours of incubation by liquid-chromatography-coupled mass spectrometry (LC–MS); parameters: dose 5 uM, timepoint 0, 1.5, 3, 6, 9, 12 hours; conditions: limosilactobacillus fermentum, 5 µM
[20] = The drug is tested on Lactobacillus gasseri strain: DSM20243 for biotransformation under microaerobic condition. The drug concentrations were measured over 6 timepoints collected between 0 and 12 hours of incubation by liquid-chromatography-coupled mass spectrometry (LC–MS); parameters: dose 5 uM, timepoint 0, 1.5, 3, 6, 9, 12 hours; conditions: 5 µM
[21] = The drug is tested on Lactobacillus ruminis strain: ATCC25644 for biotransformation under microaerobic condition. The drug concentrations were measured over 6 timepoints collected between 0 and 12 hours of incubation by liquid-chromatography-coupled mass spectrometry (LC–MS); parameters: dose 5 uM, timepoint 0, 1.5, 3, 6, 9, 12 hours; conditions: ligilactobacillus ruminis, 5 µM
[22] = The drug is tested on Streptococcus salivarius strain: DSM20560 for biotransformation under microaerobic condition. The drug concentrations were measured over 6 timepoints collected between 0 and 12 hours of incubation by liquid-chromatography-coupled mass spectrometry (LC–MS); parameters: dose 5 uM, timepoint 0, 1.5, 3, 6, 9, 12 hours; conditions: 5 µM
[23] = The drug is tested on Streptococcus sanguinis strain: DSM20567 for biotransformation under microaerobic condition. The drug concentrations were measured over 6 timepoints collected between 0 and 12 hours of incubation by liquid-chromatography-coupled mass spectrometry (LC–MS); parameters: dose 5 uM, timepoint 0, 1.5, 3, 6, 9, 12 hours; conditions: 5 µM
[24] = as §1, with “the gut metagenome community of A-06 with ENA study accession number: PRJEB31790” for “Alloscardovia omnicolens strain: DSM21503”, “7” for “6”; parameters: dose 5 uM, timepoint 0, 0.75, 1.5, 3, 6, 9, 12 hours; conditions: 5 µM
[25] = as §1, with “the gut metagenome community of A-09 with ENA study accession number: PRJEB31790” for “Alloscardovia omnicolens strain: DSM21503”, “7” for “6”; parameters: dose 5 uM, timepoint 0, 0.75, 1.5, 3, 6, 9, 12 hours; conditions: 5 µM
[26] = as §1, with “the gut metagenome community of A-10 with ENA study accession number: PRJEB31790” for “Alloscardovia omnicolens strain: DSM21503”, “7” for “6”; parameters: dose 5 uM, timepoint 0, 0.75, 1.5, 3, 6, 9, 12 hours; conditions: 5 µM
[27] = as §2, with “the gut metagenome community of A-09 with ENA study accession number: PRJEB31790” for “Gemella haemolysans strain: DSM107751”, “7” for “6”; parameters: dose 5 uM, timepoint 0, 0.75, 1.5, 3, 6, 9, 12 hours; conditions: 5 µM
[28] = as §2, with “the gut metagenome community of P-01 with ENA study accession number: PRJEB31790” for “Gemella haemolysans strain: DSM107751”, “7” for “6”; parameters: dose 5 uM, timepoint 0, 0.75, 1.5, 3, 6, 9, 12 hours; conditions: 5 µM
[29] = as §2, with “the gut metagenome community of P-04 with ENA study accession number: PRJEB31790” for “Gemella haemolysans strain: DSM107751”, “7” for “6”; parameters: dose 5 uM, timepoint 0, 0.75, 1.5, 3, 6, 9, 12 hours; conditions: 5 µM

SMILES | Bacterial Biotransformation [1] | Bacterial Biotransformation [2] | Bacterial Biotransformation [3] | Bacterial Biotransformation [4] | Bacterial Biotransformation [5] | Bacterial Biotransformation [6] | Bacterial Biotransformation [7] | Bacterial Biotransformation [8] | Bacterial Biotransformation [9] | Bacterial Biotransformation [10] | Bacterial Biotransformation [11] | Bacterial Biotransformation [12] | Bacterial Biotransformation [13] | Bacterial Biotransformation [14] | Bacterial Biotransformation [15] | Bacterial Biotransformation [16] | Bacterial Biotransformation [17] | Bacterial Biotransformation [18] | Bacterial Biotransformation [19] | Bacterial Biotransformation [20] | also measured
C=CC[C@@H]1/C=C(\C)C[C@H](C)C[C@H](OC)[C@H]2O[C@@](O)(C(=O)C(=O)N3CCCC[C@H]3C(=O)O[C@H](/C(C)=C/[C@@H]3CC[C@@H](O)[C@H](OC)C3)[C@H](C)[C@@H](O)CC1=O)[C@H](C)C[C@@H]2OC.O [TACROLIMUS] | Compound NOT metabolized | Compound NOT metabolized | Compound NOT metabolized | Compound NOT metabolized | Compound NOT metabolized | Compound metabolized | Compound NOT metabolized | Compound metabolized | Compound metabolized | Compound NOT metabolized | Compound metabolized | Compound NOT metabolized | Compound NOT metabolized | Compound NOT metabolized | Compound NOT metabolized | Compound metabolized | Compound NOT metabolized | Compound NOT metabolized | Compound NOT metabolized | Compound NOT metabolized | Bacterial Biotransformation [21]: Compound NOT metabolized; Bacterial Biotransformation [22]: Compound NOT metabolized; Bacterial Biotransformation [23]: Compound NOT metabolized; Bacterial Biotransformation [24]: Compound metabolized; Bacterial Biotransformation [25]: Compound metabolized; Bacterial Biotransformation [26]: Compound metabolized; Bacterial Biotransformation [27]: Compound metabolized; Bacterial Biotransformation [28]: Compound NOT metabolized; Bacterial Biotransformation [29]: Compound NOT metabolized
C[C@]12CCC(=O)C=C1CC[C@@H]1[C@@H]2C(=O)C[C@@]2(C)[C@H]1CC[C@]2(O)C(=O)CO [CORTISONE] | Compound NOT metabolized | Compound NOT metabolized | Compound NOT metabolized | Compound NOT metabolized | Compound NOT metabolized | Compound NOT metabolized | Compound NOT metabolized | Compound metabolized | Compound NOT metabolized | Compound NOT metabolized | Compound NOT metabolized | Compound NOT metabolized | Compound NOT metabolized | Compound NOT metabolized | Compound NOT metabolized | Compound NOT metabolized | Compound NOT metabolized | Compound NOT metabolized | Compound NOT metabolized | Compound NOT metabolized | Bacterial Biotransformation [21]: Compound NOT metabolized; Bacterial Biotransformation [22]: Compound NOT metabolized; Bacterial Biotransformation [23]: Compound NOT metabolized; Bacterial Biotransformation [24]: Compound metabolized; Bacterial Biotransformation [25]: Compound metabolized; Bacterial Biotransformation [26]: Compound metabolized; Bacterial Biotransformation [27]: Compound metabolized; Bacterial Biotransformation [28]: Compound metabolized; Bacterial Biotransformation [29]: Compound metabolized
C[C@@H](NCCCc1cccc(C(F)(F)F)c1)c1cccc2ccccc12 | Compound NOT metabolized | Compound NOT metabolized | Compound NOT metabolized | Compound NOT metabolized | Compound NOT metabolized | Compound NOT metabolized | Compound NOT metabolized | Compound NOT metabolized | Compound NOT metabolized | Compound NOT metabolized | Compound NOT metabolized | Compound NOT metabolized | Compound NOT metabolized | Compound NOT metabolized | Compound NOT metabolized | Compound NOT metabolized | Compound NOT metabolized | Compound NOT metabolized | Compound NOT metabolized | Compound NOT metabolized | Bacterial Biotransformation [21]: Compound NOT metabolized; Bacterial Biotransformation [22]: Compound NOT metabolized; Bacterial Biotransformation [23]: Compound NOT metabolized; Bacterial Biotransformation [24]: Compound NOT metabolized; Bacterial Biotransformation [25]: Compound NOT metabolized; Bacterial Biotransformation [26]: Compound NOT metabolized; Bacterial Biotransformation [27]: Compound NOT metabolized; Bacterial Biotransformation [28]: Compound NOT metabolized; Bacterial Biotransformation [29]: Compound NOT metabolized
